# Experimental data reported in US20120121540A1 (priority 2007, published 2012).
# Test: HCV replicon assay (luciferase reporter, ET cell line)
# Assay type: cell-based
# Settings: Hepatitis C virus, HCV replicon luciferase activity in ET cells
# Outline: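 ET cells carry a stable luciferase-ubiquitin-neo/NS3-5B subgenomic HCV replicon with adaptive mutations. Compounds (0.1 nM to […], 0.5% DMSO) were added 24 h after plating, and luciferase was read 48-72 h later. EC50 came from 10-point 2-fold dilutions fitted to a Hill equation; TC50 was measured in parallel by WST-1.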
row,Compound,inhibition at 10 µM [%]
1,"CC(C)(C)C#Cc1c(C(=O)NCc2cccs2)nc2c(C(F)(F)F)cc(-c3cccc(F)c3)cn12 [Compound 307, 3-(3,3-Dimethyl-but-1-ynyl)-6-(3-fluoro-phenyl)-8-trifluoromethyl-imidazo[1,2-a]pyridine-2-carboxylic Acid (thiophen-2-ylmethyl)-amide]",33.5
2,"O=C(NCc1cn2cc(-c3ccoc3)cc(C(F)(F)F)c2n1)NCc1ccccc1F [Compound 399, 1-(2-Fluoro-benzyl)-3-(6-furan-3-yl-8-trifluoromethyl-imidazo[1,2-a]pyridine-2-ylmethyl)-urea]",37.7
3,"O=C(NCc1cccs1)c1nc2c(C(F)(F)F)cc(-c3cnoc3)cn2c1Cl [Compound 288, 3-Chloro-6-isoxazol-4-yl-8-trifluoromethyl-imidazo[1,2-a]pyridine-2-carboxylic Acid(thiophen-2-ylmethyl)-amide]",85
4,"COc1cc(-c2ccccc2)cc2cc(C(=O)NCc3cccs3)nn12 [Compound 117, 7-Methoxy-5-phenyl-pyrazolo[1,5-a]pyridine-2-carboxylic Acid (thiophen-2-ylmethyl)-amide]",25.8
5,"CC1(C)CCCN1C(=O)c1nc2c(C(F)(F)F)cc(-c3ccoc3)cn2c1Cl [Compound 330, (3-Chloro-6-furan-3-yl-8-trifluoromethyl-imidazo[1,2-a]pyridin-2-yl)-(2,2-dimethyl-pyrrolidin-1-yl)-methanone]",34.4
6,"O=C(c1nc2c(C(F)(F)F)cc(-c3cn[nH]c3)cn2c1Br)N1CCC(c2nccs2)CC1 [Compound 611, [3-Bromo-6-(1H-pyrazol-4-yl)-8-trifluoromethyl-imidazo[1,2-a]pyridin-2-yl]-(4-thiazol-2-yl-piperidin-1-yl)-methanone]",92.4
7,"O=C(c1nc2c(C(F)(F)F)cc(-c3ccoc3)cn2c1-c1ccoc1)N1CCC(c2ccc(F)cc2)C1 (stereo not drawn) [Compound 254, (3,6-Di-furan-3-yl-8-trifluoromethyl-imidazo[1,2-a]pyridin-2-yl)-[3-(4-fluoro-phenyl)-pyrrolidin-1-yl]-methanone]",46.9
8,"O=C(NCCc1ccccc1F)c1nc2c(C(F)(F)F)cc(-c3ccoc3)cn2c1Cl [Compound 405, 3-Chloro-6-furan-3-yl-8-trifluoromethyl-imidazo[1,2-a]-pyridine-2-carboxylic acid [2-(2-fluoro-phenyl)-ethyl]-amide]",90
9,"O=C(NCc1cn2cc(-c3ccoc3)cc(C(F)(F)F)c2n1)OCc1ccccc1 [Compound 393, (6-Furan-3-yl-8-trifluoromethyl-imidazo[1,2-a]pyridine-2-ylmethyl)-carbamic Acid Benzyl Ester]",0.5
10,"Cc1noc(C2CCN(C(=O)c3nc4c(C(F)(F)F)cc(-c5ccoc5)cn4c3Cl)C2)n1 (stereo not drawn) [Compound 475, (3-Chloro-6-furan-3-yl-8-trifluoromethyl-imidaz[1,2-a]pyridin-2-yl)-[3-(3-methyl-[1,2,4]oxadiazol-5-yl)-pyrrolidin-1-yl]-methanone]",93
11,"O=C(NCc1cccs1)c1cc2cc(-c3ccccc3)cc(N3CCOCC3)n2n1 [Compound 148, 7-Morpholin-4-yl-5-phenyl-pyrazolo[1,5-a]pyridine-2-carboxylic Acid (thiophen-2-ylmethyl)-amide]",27.7
12,"O=C(NCc1cccs1)c1nc2c(C(F)(F)F)cc(-c3cccc(F)c3)cn2c1C#CCCO [Compound 306, 6-(3-Fluoro-phenyl)-3-(4-hydroxy-but-1-ynyl)-8-trifluoromethyl-imidazo[1,2-a]pyridine-2-carboxylic Acid (thiophen-2-ylmethyl)-amide]",62.5
13,"O=C(c1nc2c(C(F)(F)F)cc(-c3cn[nH]c3)cn2c1Br)N1CC=C(c2cccs2)C1 [Compound 442, [3-Bromo-6-(1H-pyrazol-4-yl)-8-trifluoromethyl-imidazo[1,2-a]pyridine-2-yl]-(3-thiophen-2-yl-2.5-dihydro-pyrrol-1-yl)-methanone]",99.5
14,"O=C(c1nc2c(C(F)(F)F)cc(-c3ccco3)cn2c1Cl)N1Cc2cccnc2C1 [Compound 217, (3-Chloro-6-furan-2-yl-8-trifluoromethyl-imidazo[1,2-a]pyridin-2-yl)-(5,7-dihydro-pyrrolo[3,4-b]pyridin-6-yl)-methanone]",38.8
15,"Cc1c(C(=O)NCc2cccs2)nc2c(C(F)(F)F)cc(-c3ccco3)cn12 [Compound 156, 6-Furan-2-yl-3-methyl-8-trifluoromethyl-imidazo[1,2-a]pyridine-2-carboxylic acid (thiophen-2-ylmethyl)-amide]",89.3
16,"O=C(c1nc2c(C(F)(F)F)cc(-c3ccoc3)cn2c1Cl)N1CCC(c2ccccc2Cl)CC1 [Compound 541, (3-Chloro-6-furan-3-yl-8-trifluoromethyl-imidazo[1,2-a]pyridin-2-yl)-[4-(2-chloro-phenyl)-piperidin-1-yl]-methanone]",89.7
17,"CC(=O)N[C@H]1CN(C(=O)c2nc3c(C(F)(F)F)cc(-c4ccoc4)cn3c2Cl)C[C@@H]1c1ccccc1 (stereo in doubt) [Compound 459, N-(-1-(3-Chloro-6-furan-3-yl-8-trifluoromethyl-imidazo[1,2-a]pyridine-2-carbonyl)-4-phenyl-pyrrolidin-3-yl)-acetamide]",25.5
18,O=C(NCc1ccc(F)cc1)c1nc2c(C(F)(F)F)cc(-c3ccoc3)cn2c1Cl [Compound 404],83.9
19,"COc1ccccc1C1CCN(C(=O)c2nc3c(C(F)(F)F)cc(-c4ccoc4)cn3c2Cl)CC1 [Compound 550, (3-Chloro-6-furan-3-yl-8-trifluoromethyl-imidazo[1,2-a]pyridin-2-yl)-[4-(2-methoxy-phenyl)-piperidin-1-yl)-methanone]",64.8
20,"O=C(c1nc2c(C(F)(F)F)cc(-c3cn[nH]c3)cn2c1Br)N1CCC(c2ccccc2)C1 (stereo not drawn) [Compound 461, (3-Bromo-6-(1H-pyrazol-4-yl)-8-trifluoromethyl-imidazo[1,2-a]pyridin-2-yl)-(3-phenyl-pyrrolidin-1-yl)-methanone]",94.3
21,"COc1ccccc1CNC(=O)c1nc2c(C(F)(F)F)cc(-c3ccco3)cn2c1Cl [Compound 190, 3-Chloro-6-furan-2-yl-8-trifluoromethyl-imidazo[1,2-a]pyridine-2-carboxylic acid 2-methoxy-benzylamide]",68.1
22,"N#Cc1ccc(F)cc1C1=CCN(C(=O)c2nc3c(C(F)(F)F)cc(-c4ccoc4)cn3c2Cl)CC1 [Compound 569, 2-[1-(3-Chloro-6-furan-3-yl-8-trifluoromethyl-imidazo[1,2-a]pyridine-2-carbonyl)-1,2,3,6-tetrahydro-pyridin-4-yl]-4-fluoro-benzonitrile]",85.3
23,"O=C(c1nc2c(C(F)(F)F)cc(-c3ccoc3)cn2c1Cl)N1CCC(c2ccccc2)=N1 [Compound 477, (3-Chloro-6-furan-3-yl-8-trifluoromethyl-imidazo[1,2-a]pyridin-2-yl)-(3-phenyl-4,5-dihydro-pyrazol-1-yl)-methanone]",97.6
24,"O=C(c1nc2c(C(F)(F)F)cc(-c3ccoc3)cn2c1Cl)N1CC=C(c2cccs2)CC1 [Compound 613, (3-Chloro-6-furan-3-yl-8-trifluoromethyl-imidazo[1,2-a]pyridin-2-yl)-(4-thiophen-2-yl-3,6-dihydro-2H-pyridin-1-yl)-methanone]",99.4
